Test results published in patent publication US6962909B2, “Treatment of neovascularization disorders with squalimine” (Genaera Corporation, priority 1995, dated 2005).
In brackets after ≈: the same amount, converted by molar mass.

Legend:
[1] = system: vitelline capillaries of 3- to 5-day chick embryo; assay: Chick embryo vitelline capillary regression assay; assay type: in vivo; design: key to Vascular reactivity (capillary regression): + = Vascular reactivity; 0 = No vascular reactivity; +/− = Equivocal reactivity
Procedure, shortened: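 Compounds were applied onto the 3- to 5-day embryo in 0.1 ml 15% Ficol 400 in PBS. Vascular regression was assessed visually after 60 min, scoring capillary constriction and pinching-off into enclosed blood-island-like sacs.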

[2] = system: human microvascular cells; assay: Endothelial cord formation assay; assay type: cell-based; further: key: + = Inhibition of angiogenesis; − = No inhibition of angiogenesis; T = Toxic; *= cell rounding @ 10 µg/ml
Procedure, shortened: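 Human microvascular endothelial cells plated on collagen matrix with VEGF and basic fibroblast growth factor; compound effect assessed on resulting cord-like tubular structures.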

Human melanoma WM 1167 = assay: Cytotoxic activity against cancer cells
[3] = system: Stage 59-60 Xenopus tadpoles; assay: Xenopus tadpole assay; assay type: in vivo, Xenopus laevis; details: 10 μg/ml in water
Procedure, shortened: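 Stage 59-60 Xenopus laevis tadpoles placed in compound dissolved in distilled water at 10 μg/ml, allowing oral uptake and systemic exposure. After 1 hour, capillary blood-flow occlusion in the tail was scored by inverted microscopy (~100×) plus gross observation.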

Lewis lung carcinoma = assay: In vitro cell growth inhibition (assay of Baker et al.); assay type: cell-based
Source text: As set forth in Table 7 below, all malignant tumors evaluated in tissue culture, endothelial cells and vascular smooth muscle cells were sensitive to inhibition. Thus, compound 1436 has application in the control of growth factor dependent proliferation of many types of tissue.

CC(C)CCCC(C)[C@H]1CCC2C3CC[C@H]4C[C@@H](NCCCNCCCCNCCCN)CC[C@]4(C)C3CC[C@@]21C (stereo partly drawn) [Compound 353]
Vascular reactivity (capillary regression) ([1]; 1 μg applied, 60 minutes): +/−
Effect on chick embryo capillary bed ([1]; in vivo): no effect on the chick embryo capillary bed
Effect on endothelial cord formation ([2]; 0.1 μg/ml): +
Effect on endothelial cord formation ([2]; 1.0 μg/ml): +
Effect on endothelial cord formation ([2]; 10.0 μg/ml): +
Mechanism of cell death in exposed cells (Human melanoma WM 1167): apoptotic cell death has been induced
IC50 (Human melanoma WM 1167; Homo sapiens): 3 µg/mL (≈ 5.24 µM)
Pharmacological category in tadpole assay (similarity to a reference steroid) [3]: effects like those produced by compound 1436
IC50 (Lewis lung carcinoma): 1.9 µg/mL (≈ 3.32 µM)
